Results on one compound are retold here after patent US10722637B2, “Cartridge and method for increasing myocardial function” (SeaStar Medical, Inc., priority 2012, dated 2020).

Assay [1] deals with leukocytes in porcine blood. Description: Microscopic flow chamber: leukocyte interaction with polysulfone membrane. It is filed as cell-based. The source says: A custom microscopic flow chamber system was set up to enable microscopic analysis of leukocyte interaction with the SCD membrane. The flow chamber consisted of a polycarbonate housing with an inlet and outlet for perfusion. A polysulfone membrane was affixed to the polycarbonate block with a gasket which directed shear flow. The thickness of the gasket (100 μm) along with the length (2 cm) and the width of the channel (1.5 mm) determined the volume of the flow chamber. Microscopic imaging was accomplished through an optical window made up of a cover glass affixed to the bottom of the polycarbonate block. Either isolated blood or purified leukocytes were used for this study.
Isolated blood was prone to activation from excessive handling. […] Blood passed through the flow chamber at a rate of 20 μL/min with calculated shear forces between 1-10 dynes/cm^2. […]
Microscopic analysis of cell capture events was accomplished using either a Zeiss Axiovert 200M or Axio-Observer epifluorescence microscope equipped with a microscope stage-top incubator to control environmental temperature and CO2 content. Fluorescence images were acquired with either a Zeiss MRm3 or an Icc1 camera at a frequency of 1 frame/second for 5 minutes, for analysis of leukocyte/membrane interaction, and at 1 frame/minute for 1 hour sequences, for analysis of long term leukocyte attachment. […]

Assay [2] deals with leukocytes in human whole blood. In words: In vitro whole blood assay of leukocyte activation. It is filed as cell-based. Particulars: for CD11b: n = 3; for Lactoferrin: n = 4; for Elastase: n = 5. As for the experimental part:
Heparinized human whole blood was added to tubes with or without lipopolysaccharide (LPS) (10 μg/mL) or formyl-Methionyl-Leucyl-Phenylalanine (fMLF, 50 nM). […] The release of IL-6, IL-8, or IL-10 was measured using commercially available ELISA kits from R&D Systems. The release of elastase was measured using a commercially available ELISA kit from Bender MedSystems. The release of lactoferrin was measured using a commercially available ELISA kit from EMD Chemicals. […] Samples were incubated for various times at 37° C. and 5% CO2. CD11b activation was measured using an FITC-conjugated mouse anti-human antibody (AbD Serotech) and evaluated on an Accuri C6 flow cytometer.

Where only a bound is given, the exact number is not on record here.

`O=C(O)CC(O)(CC(=O)O)C(=O)O` [Citrate]: in assay [1] (LPS activated, low ionized calcium flow chambers), the “leukocyte attachment to polysulfone membranes during shear flow” value is on record as “statistically significant decrease”. In addition, the “blood iCa level” value in assay [1] (after addition of citrate (from 1.32±0.05)) turned out to be 0.32 ± 0.05 mmol/L. Moreover, in assay [2] (Baseline), the CD11b is on record as 7.32 ± 0.47 MFI × 10^3, the Lactoferrin is 1.67 ± 0.29 mg/mL and the Elastase is 0.94 ± 0.14 mg/mL. Besides, in assay [2] (Stimulated (LPS, fMLF)), the CD11b came out at 28.72 ± 2.95 MFI × 10^3, the Lactoferrin is recorded as 3.43 ± 0.18 mg/mL and the Elastase came out at 0.91 ± 0.28 mg/mL. Further, the iCa levels in assay [2] (citrate treated samples (1.25 mM nontreated)) is on record as less than 0.25 mM.
